SMILES strings stand for the structures.

What all share (format): biochemical
The target of assay [1] is T1, myeloperoxidase (MPO) (Homo sapiens (Human), UniProt P05164). Briefly: MPO chlorination assay (APF assay). The note with it: MPO chlorination, potency range class; read-out: APF Assay IC50 value.
Assay [2] has as its target T1, myeloperoxidase (MPO). The assay is described as follows: MPO peroxidation assay (Amplex Red assay). The note with it: MPO peroxidation, potency range class; read-out: Amplex Red Assay IC50 value.
For assay [3], the target named is eosinophil peroxidase (EPX) (Homo sapiens (Human), UniProt P11678). Briefly: EPX bromination assay. On the procedure:
[formula] where A=minimal Y value (activity level of inhibited sample), B=maximal Y value (activity level of uninhibited sample), C=Log IC50, D=Hill Slope, x=concentration of inhibitor. EPX Bromination Assay
EPX bromination activity was measured in 100 mM KPi (pH 7.4) by monitoring the H2O2 catalyzed formation of 3-bromo tyrosine from tyrosine and potassium bromide. A 50 μl mixture of 0.6 μM EPX (Lee Biosolutions Cat#342-60) was added to 100 nL inhibitor in 100% DMSO in a 384 well REMP plate. Enzyme and compound were preincubated for ten minutes at room temperature.
After the ten minute preincubation of enzyme and inhibitor, 25 μL of a mixture containing 400 μM tyrosine and 1200 μM potassium bromide was added to the plate containing enzyme and inhibitor, followed by the addition of 25 μl of 20 μM H2O2. The reaction was allowed to proceed for 15 minutes, at which time it was quenched with 10 μL of 20% TCA. The final concentrations of all components were 0.3 μM EPX, 100 μM tyrosine, […], 5 μM H2O2, 0.1% DMSO, 2.0% TCA.
IC50 values were determined by determining the peak areas of 3-bromo-tyrosine present at the end of the 15 minute reaction and fitting the data to:
[formula] where A=minimal Y value (activity level of inhibited sample), B=maximal Y value (activity level of uninhibited sample), C=Log IC50, D=Hill Slope, x=concentration of inhibitor.
Reversed-phase analysis was performed on a Waters Acquity Ultra Performance LC system using an Acquity UPLC BEH C18 […], 2.1×50 mm analytical column. The column was maintained at 60° C. Samples were eluted using a gradient of 0%-100% B over 2.5 minutes, followed by equilibration with 100% A for 1 minute where A consisted of 0.1% TFA and B consisted of 90% MeOH/0.1% TFA at a flow rate of 0.6 ml/min. The retention time of 3-bromo tyrosine was 1.22 min.

T1 sequence (P05164 49-745): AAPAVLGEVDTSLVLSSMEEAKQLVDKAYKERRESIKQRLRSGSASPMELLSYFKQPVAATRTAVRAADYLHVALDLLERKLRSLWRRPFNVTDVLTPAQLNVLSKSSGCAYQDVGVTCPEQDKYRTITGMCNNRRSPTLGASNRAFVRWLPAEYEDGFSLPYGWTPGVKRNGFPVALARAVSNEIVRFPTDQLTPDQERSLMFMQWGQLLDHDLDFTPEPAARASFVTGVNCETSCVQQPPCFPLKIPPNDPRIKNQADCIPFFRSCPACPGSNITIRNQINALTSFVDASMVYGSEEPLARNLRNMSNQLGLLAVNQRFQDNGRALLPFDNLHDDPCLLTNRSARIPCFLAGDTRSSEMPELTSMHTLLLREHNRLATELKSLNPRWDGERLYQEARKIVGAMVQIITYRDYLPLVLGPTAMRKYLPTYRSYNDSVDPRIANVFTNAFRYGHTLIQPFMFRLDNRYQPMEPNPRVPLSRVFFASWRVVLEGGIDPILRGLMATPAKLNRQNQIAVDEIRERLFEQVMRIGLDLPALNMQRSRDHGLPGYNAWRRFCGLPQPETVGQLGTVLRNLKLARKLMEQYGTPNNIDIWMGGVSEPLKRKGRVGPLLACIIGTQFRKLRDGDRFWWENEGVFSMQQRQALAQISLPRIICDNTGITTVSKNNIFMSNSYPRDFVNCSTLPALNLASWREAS
eosinophil peroxidase (EPX), sequence (P11678 140-715): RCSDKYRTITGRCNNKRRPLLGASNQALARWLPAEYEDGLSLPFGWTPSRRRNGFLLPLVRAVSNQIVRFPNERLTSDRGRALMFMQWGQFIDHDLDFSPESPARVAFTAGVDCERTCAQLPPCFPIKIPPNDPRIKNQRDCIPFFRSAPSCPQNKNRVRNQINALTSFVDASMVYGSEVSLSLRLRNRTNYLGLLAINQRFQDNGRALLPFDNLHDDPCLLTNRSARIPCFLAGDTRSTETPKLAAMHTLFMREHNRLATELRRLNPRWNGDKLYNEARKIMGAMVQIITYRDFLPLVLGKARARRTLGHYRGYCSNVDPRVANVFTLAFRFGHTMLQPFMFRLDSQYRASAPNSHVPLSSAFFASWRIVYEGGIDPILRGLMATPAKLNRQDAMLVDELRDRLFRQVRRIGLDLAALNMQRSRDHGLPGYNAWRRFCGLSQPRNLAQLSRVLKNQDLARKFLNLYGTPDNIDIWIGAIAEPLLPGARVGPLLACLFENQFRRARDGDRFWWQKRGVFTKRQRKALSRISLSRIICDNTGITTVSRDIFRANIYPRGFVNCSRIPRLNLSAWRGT

`Nc1cc(Cc2cc(Cl)ccc2F)c2nn[nH]c2n1` [Example 21, 7-(5-chloro-2-fluorobenzyl)-3H-[1,2,3] triazolo[4,5-b]pyridin-5-amine]: the IC50 on myeloperoxidase (MPO) [1] and at myeloperoxidase (MPO) [2] was 1 to 100 nM each time.

`Nc1cc(Cc2ccc(F)cc2)c2nn[nH]c2n1` [Example 28, 7-(4-fluorobenzyl)-3H-[1,2,3]triazolo [4,5-b]pyridin-5-amine]: the IC50 on myeloperoxidase (MPO) [1] and on myeloperoxidase (MPO) [2] was 101 to 999 nM in each case.

On to `Nc1cc(Cc2cccc(OC(F)(F)F)c2)c2nn[nH]c2n1` [Example 29, 7-(3-(trifluorometh-oxy)benzyl)-3H-[1,2,3]triazolo [4,5-b]pyridin-5-amine], for which the half-inhibitory concentration (IC50) at myeloperoxidase (MPO) [1] and at myeloperoxidase (MPO) [2] was 101 to 999 nM throughout.

As for `Cc1cc(C)cc(Cc2cc(N)nc3[nH]nnc23)c1` [Example 31, 7-(3,5-dimethylbenzyl)-3H-[1,2,3] triazolo[4,5-b]pyridin-5-amine], the IC50 is 101 to 999 nM at myeloperoxidase (MPO) [1], 1 to 100 nM at myeloperoxidase (MPO) [2] and 34 nM in assay [3].

For the compound `Nc1cc(Cc2ccc(F)c(F)c2)c2nn[nH]c2n1` [Example 34, 7-(3,4-difluorobenzyl)-3H-[1,2,3] triazolo[4,5-b]pyridin-5-amine], the IC50 at myeloperoxidase (MPO) [1] and on myeloperoxidase (MPO) [2] was 101 to 999 nM throughout.

As to `Nc1cc(Cc2ccc(-c3ccccc3)cc2)c2nn[nH]c2n1` [Example 37, 7-([1,1′-biphenyl]-4-ylmethyl)-3H-[1,2,3]triazolo [4,5-b]pyridin-5-amine], the IC50 on myeloperoxidase (MPO) [1] and at myeloperoxidase (MPO) [2] was 101 to 999 nM throughout.

For `Nc1cc(Cc2cccc(C(=O)c3ccccc3)c2)c2nn[nH]c2n1` [Example 40, (3-((5-amino-3H-[1,2,3]triazolo [4,5-b]pyridin-7-yl)methyl)phenyl)(phenyl) methanone], the IC50 at myeloperoxidase (MPO) [1] and at myeloperoxidase (MPO) [2] was 101 to 999 nM in each case.

In the case of `Nc1cc(Cc2ccc(F)cc2F)c2nn[nH]c2n1` [Example 43, 7-(2,4-difluorobenzyl)-3H-[1,2,3] triazolo[4,5-b]pyridin-5-amine], the IC50 on myeloperoxidase (MPO) [1] and at myeloperoxidase (MPO) [2] was 101 to 999 nM in each case.

On to `Nc1cc(Cc2cccc(F)c2F)c2nn[nH]c2n1` [Example 44, 7-(2,3-difluorobenzyl)-3H-[1,2,3] triazolo[4,5-b]pyridin-5-amine], for which the values for the IC50 on myeloperoxidase (MPO) [1] and at myeloperoxidase (MPO) [2] were 101 to 999 nM and 1 to 100 nM, respectively.

In the case of `Nc1cc(Cc2cccc(C(=O)NCCc3ccccc3)c2)c2nn[nH]c2n1` [Example 47, 3-((5-Amino-3H-[1,2,3]triazolo[4,5-b]pyridin-7-yl)methyl)-N-phenethylbenzamide], the IC50 on myeloperoxidase (MPO) [1] and at myeloperoxidase (MPO) [2] was 101 to 999 nM each time.

Regarding `Nc1cc(Cc2cccc(-c3ccn(Cc4ccccc4)n3)c2)c2nn[nH]c2n1` [Example 48, 7-(3-(1-Benzyl-1H-pyrazol-3-yl)benzyl)-3H-[1,2,3]triazolo[4,5-b]pyridin-5-amine], the IC50 on myeloperoxidase (MPO) [1] lay within 101 to 999 nM; on myeloperoxidase (MPO) [2] it was 1 to 100 nM.

`COC(=O)c1cc(Cc2cc(N)nc3[nH]nnc23)ccc1F` [Example 50, methyl 5-((5-amino-3H-[1,2,3]triazolo [4,5-b]pyridin-7-yl)methyl)-2-fluorobenzoate]: the IC50 at myeloperoxidase (MPO) [1] and on myeloperoxidase (MPO) [2] was 101 to 999 nM each time.

For `COc1cccc(Cc2cc(N)nc3[nH]nnc23)n1` [Example 51, 7-((6-Methoxypyridin-2-yl)methyl)-3H-[1,2,3]triazolo[4,5-b]pyridin-5-amine], the figures for the IC50 at myeloperoxidase (MPO) [1] and on myeloperoxidase (MPO) [2] were 1000 to 10000 nM and 101 to 999 nM, respectively.

Consider `Nc1cc(Cc2cccnc2)c2nn[nH]c2n1` [Example 56, 7-(pyridin-3-ylmethyl)-3H-[1,2,3] triazolo[4,5-b]pyridin-5-amine], for which the IC50 on myeloperoxidase (MPO) [1] and on myeloperoxidase (MPO) [2] was 101 to 999 nM throughout.

Regarding `Nc1cc(Cc2cncc(Cl)c2)c2nn[nH]c2n1` [Example 57, 7-((5-chloropyridin-3-yl)methyl)-3H-[1,2,3]triazolo [4,5-b]pyridin-5-amine], the IC50 on myeloperoxidase (MPO) [2] is 1 to 100 nM; in assay [3] it was 52 nM.

For `Nc1cc(Cc2ccc(Oc3ccccc3)nc2)c2nn[nH]c2n1` [Example 58, 7-((6-phenoxypyridin-3-yl)methyl)-3H-[1,2,3]triazolo [4,5-b]pyridin-5-amine], the values for the IC50 at myeloperoxidase (MPO) [1] and at myeloperoxidase (MPO) [2] were 101 to 999 nM and 1000 to 10000 nM, respectively.

In the case of `Nc1cc(Cc2cccc3c2ccn3Cc2cccc(Cc3ccccc3)c2)c2nn[nH]c2n1` [Example 62, 7-((1-(3-Benzylbenzyl)-1H-indol-4-yl)methyl)-3H-[1,2,3]triazolo[4,5-b]pyridin-5-amine], the IC50 on myeloperoxidase (MPO) [1] and at myeloperoxidase (MPO) [2] was 1 to 100 nM throughout.

For the compound `Nc1cc(Cc2cccc3c2ccn3Cc2cccc(OCc3ccccc3)c2)c2nn[nH]c2n1` [Example 63, 7-((1-(3-(Benzyloxy)benzyl)-1H-indol-4-yl)methyl)-3H-[1,2,3]triazolo[4,5-b]pyridin-5-amine], the IC50 at myeloperoxidase (MPO) [1] and on myeloperoxidase (MPO) [2] was 1 to 100 nM throughout.

As for `Nc1cc(Cc2cccc3c2ccn3Cc2cccc(F)c2)c2nn[nH]c2n1` [Example 64, 7-((1-(3-Fluorobenzyl)-1H-indol-4-yl)methyl)-3H-[1,2,3]triazolo[4,5-b]pyridin-5-amine], the IC50 is 101 to 999 nM on myeloperoxidase (MPO) [1], 1 to 100 nM at myeloperoxidase (MPO) [2] and 19 nM in assay [3].

Take `Nc1cc(Cc2cccc3c2cnn3Cc2ccccc2)c2nn[nH]c2n1` [Example 65, 7-((1-Benzyl-1H-indazol-4-yl)methyl)-3H-[1,2,3]triazolo[4,5-b]pyridin-5-amine]: the IC50 on myeloperoxidase (MPO) [1] and on myeloperoxidase (MPO) [2] was 1 to 100 nM throughout.

Regarding `Nc1cc(Cc2cccc3nn(Cc4ccccc4)cc23)c2nn[nH]c2n1` [Example 66, 7-((2-Benzyl-2H-indazol-4-yl)methyl)-3H-[1,2,3]triazolo[4,5-b]pyridin-5-amine], the IC50 at myeloperoxidase (MPO) [1] and on myeloperoxidase (MPO) [2] was 101 to 999 nM throughout.

For the origin of these results see US10214527B2, “Triazolopyridine inhibitors of myeloperoxidase” (priority 2015, dated 2019).
